Our source for the Kd values is article PMC4506568, “Targeting a Dynamic Protein–Protein Interaction: Fragment Screening against the Malaria Myosin A Motor Complex” (Chemmedchem, 2014).

Usually Kd stands for the free concentration of one partner at which half of the binding sites on the other are occupied at equilibrium, for simple one-to-one binding. A higher Kd goes with a looser complex.

This assay concerns the target T1, PfMTIPΔ60 (Plasmodium falciparum myosin A tail domain interacting protein, residues 61-204) (Plasmodium falciparum, UniProt Q8I4W8).
T1 construct: gene MTIP; residues 61-204 (N- and C-terminal domains, disordered N-terminal extension removed), N-terminal His tag kept, recombinant as previously described; 15N-labelled for NMR; free of myoA tail
The assay can be described thus: 1H, […]-HSQC NMR titration. The class given is binding.

T1 sequence (Q8I4W8 entry or part of it, stated change not applied): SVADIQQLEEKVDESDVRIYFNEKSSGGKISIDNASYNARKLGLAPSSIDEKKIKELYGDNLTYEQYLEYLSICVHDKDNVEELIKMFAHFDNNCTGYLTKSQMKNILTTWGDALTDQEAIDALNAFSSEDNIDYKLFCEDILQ

`CN(C)Cc1ccc(CSCCN)o1` [compound 8, fragment 8] gave a Kd of 22.5 ± 2.7 mM.
